Measured values reported in patent US20040241184A1, “Fermentation product of cyptoporous volvatus and its preparation method and use” (priority 2001, published 2004).

Experiments:
[1] = test system: cavy cough caused by citric acid; assay: Cough reverberation of cavy caused by citric acid; type: in vivo; settings: 10 mg · kg^−1, once daily 3 days
Experimental: Put cavies into a volume marked box to stabilize for 1 min, and then atomize 15% citric acid for 2 min by ultrasonic nebulizer. From then on, select the cavies that cough more than 10 times in minutes. Divide the selected cavies into 5 groups in terms of their cough times, and then treat them respectively with testing medicine sample CVFS 0.3 g/kg, 0.9 g/kg, 2.7 g/kg, positive control codeine phosphate (10 mg/kg), and the negative control group is administered by intragater method with 10 ml·kg^−1 physiological saline solution (i.g), one time every day, altogether 3 days. 1 hour after the last administration of medicine, induce cough by above method and count the cough times in 10 min from the beginning of atomization.

[2] = test system: sensitized cavies attacked by antigen (egg albumin); assay: Inflammatory cells in bronchial lung lavage solution of sensitized cavies after antigen attack (Table 3); type: in vivo, cavy; settings: 0.5 mg/kg Ip, 10 days
Experimental: 2% egg albumin gel solution is used to cause allergy and is subcutaneously injected (0.05 mL each part) in ten parts of two retral soles, groin, waist, back, neck and armpits of each cavy. 0.5 mL 2% egg albumin gel solution is intraperitoneally injected at the same time. The medicine samples are injected since the tenth day after allergy has been caused. The testing samples of A2, B2, C2 or physiological saline solution (NS, 0.5 mL/kg) or dexamethasone (DXM, […]) are intraperitoneal injected respectively; A1, B1 (5 g/kg), C1 (2.5 g/kg) are administered by intragaster. The above testing samples are administered 10 days. A1: fermentation mycelium powder; […]: culture supernatant concentrated fluid; C1: sporophore powder; A2: water extract of fermentation mycelium; B2: fermentation concentrated fluid; C2: water extract of sporophore powder; dexamethasone sodium phosphate. Asthma as a chronic airway inflammatory disease is characterized by significant increase of eosinophils of bronchus and lung. Eosinophils can release tens of inflammatory substances, such as cytokines, leukotriene and prostapar etc., which may cause inflammation, edema, injury and thickening of airway, make narrow airway and therefore lead to dyspnea. Thus, eosinophil is considered as a target of screening drugs for relieving cough at present. The medicine, which can inhibit inflammation of airway eosinophils, would probably be used for preventing and treating asthma.

[3] = test system: sensitized cavies attacked by antigen (egg albumin); assay: Elementarily separated substances: inflammatory cells in bronchial lung lavage solution of sensitized cavies after antigen attack (Table 5); type: in vivo, cavy; settings: 0.5 mg/kg intraperitoneal, 10 days
Experimental: 2% egg albumin gel solution is used to cause allergy. The medicine samples are administered since the tenth day after allergy has been caused. The cavies are administered by introgaster method with this tested medicine sample or with physiological saline solution (10 ml/kg); or administered by intraperitoneal method with dexamethasone (0.5 mg/kg). All of the testing medicine samples are administered 10 days. A: total polysaccharide extracted from fermentation product; B: total alkaloids extracted from fermentation product; C: volatile oil extracted from fermentation product; D: organic acid extracted from fermentation product; E: water extract of fermentation product; positive control: dexamethasone.

[4] = test system: sensitized cavies attacked by antigen (egg albumin); assay: Example 4 polysaccharide: inflammatory cells in bronchial lung lavage solution of sensitized cavies after antigen attack (Table 7); type: in vivo, cavy; settings: 0.5 mg/kg
Experimental: Take 20 g fermentation mycelial powder, add in 400 mL distilled water, boil and extract for 30 min. After filtration, add another 200 mL distilled water to the residue, then repeat the same steps. Mix the filtrate of the two times and add in 100 mL culture supernatant fluid. Then put the mixture into dialysis bag of retention molecular weight 10,000 Dalton and dialyze 10 mM pH6.0 buffer solution of HAc-NaAc 2000 mL for three days to remove small molecular substances in the solution. Change the penetrated liquid 1 time each day.
Then concentrate the residue to 100 mL. On animal test, the polysaccharide affects inflammatory cells in bronchial lung lavage solution of sensitized cavies after being attacked by antigen. (The results are described in Table 7.) 2% egg albumin gel solution is used to cause allergy and is subcutaneous injected (0.05 mL each part) in ten parts of two retral soles, groin, waist, back, neck and armpits of each cavy. 0.5 mL 2% egg albumin gel solution is intraperitoneal injected at the same time. The samples are injected since the tenth day after allergy has been caused.

[5] = test system: sensitized cavies attacked by antigen (1% egg albumin); assay: Pulmonary mechanical function (lung resistance RL) of sensitized cavies after antigen attack; type: in vivo, cavy; settings: 7 mg/kg×1 d; P<0.05˜0.01 in all time phases during 10 min after antigen attack
Experimental: Suppose airway resistance (RL) is 1005 before being attacked by antigen. Compared with the model group: *P<0.05, **P <0.001, ***P<0.001.
Each cavy is sensitized by being injected 10 mg egg albumin into the muscles of its crus. 3-4 weeks later, antigen attack (1% egg albumin) is given and the caused changes of lung resistance (RL) are observed to evaluate the activity of the samples.

COc1ccc2c3c1O[C@H]1[C@@H](O)C=C[C@H]4[C@@H](C2)N(C)CC[C@@]341 [Codeine phosphate, codeine phosphate]
Cough times (in 10 min) [1]: 9.4 ± 8.0
Inhibition of cough times % [1]: 67.4%

C[C@@H]1C[C@H]2[C@@H]3CCC4=CC(=O)C=C[C@]4(C)[C@@]3(F)[C@@H](O)C[C@]2(C)[C@@]1(O)C(=O)CO [DXM, dexamethasone]
Eosinophils [2]: 2.60 ± 3.9 %
Leukocyte total number [2]: 241.6 ± 179.2 Number/mm^3
Lymphocyte [2]: 68.4 ± 18.4 %
Neutrophil [2]: 28.9 ± 16.6%
Eosinophils [3]: 0.00 ± 0.00 %
Leukocyte total number [3]: 330.5 ± 254.3 Number/mm3
Lymphocyte [3]: 87.70 ± 18.73 %
Neutrophil [3]: 12.30 ± 18.74%
Eosinophil [4]: 0.00 ± 0.00 %
Leukocyte counts [4]: 330.5 ± 254.3 Number/mm3
Lymphocyte [4]: 87.70 ± 18.73 %
Neutrophil [4]: 12.30 ± 18.74%

CC(C)(C)NCC(O)c1ccc(O)c(CO)c1 (stereo not drawn) [salbutamol]
inhibition of increase of lung resistance (RL) caused by antigen attack [5]: evident inhibition
